According to the Kinase Knowledgebase extract (Sharma et al. 2016):

biological target: MAPK14 (human) (UniProt Q16539); assay: Inhibition of MAPK14 Kinase Activity
Sequence (Q16539 whole entry, looked up): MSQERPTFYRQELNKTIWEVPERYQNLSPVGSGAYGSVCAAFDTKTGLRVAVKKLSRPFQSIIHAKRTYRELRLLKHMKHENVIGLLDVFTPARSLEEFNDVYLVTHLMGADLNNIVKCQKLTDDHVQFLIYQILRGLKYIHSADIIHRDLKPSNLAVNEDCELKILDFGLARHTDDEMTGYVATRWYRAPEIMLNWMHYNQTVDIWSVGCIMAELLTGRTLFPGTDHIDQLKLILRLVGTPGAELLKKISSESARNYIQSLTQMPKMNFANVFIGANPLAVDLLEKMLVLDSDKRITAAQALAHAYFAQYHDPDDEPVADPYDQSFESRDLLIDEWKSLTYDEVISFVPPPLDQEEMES

SMILES	IC50 [µM]
COc1cc(O)cc(Cc2c[nH]c3ncc(-c4ccsc4)cc23)c1	≤ 10
O=C(c1ccccc1O)c1c[nH]c2ncc(-c3cccs3)cc12	≤ 10
CCCS(=O)(=O)Nc1ccc(Cl)c(C(=O)c2c[nH]c3ncc(-c4ccccc4)cc23)c1F	≤ 10
Nc1cccc(-c2cnc3[nH]cc(C(=O)c4ccc5nsnc5c4)c3c2)c1	≤ 10
COc1ccc(F)c(C(=O)c2c[nH]c3ncc(-c4cccnc4)cc23)c1	≤ 10
O=C(c1c(F)ccc(NS(=O)(=O)c2ccccc2)c1F)c1c[nH]c2ncc(-c3cccnc3)cc12	≤ 10
Cn1cc(C(F)(F)F)c(-c2ccc(S(=O)(=O)NCc3c[nH]c4ncccc34)s2)n1	≤ 10
O=C(c1ccc(O)cc1Cl)c1c[nH]c2ncc(-c3cccs3)cc12	≤ 10
CCCS(=O)(=O)Nc1ccc(F)c(C(=O)c2c[nH]c3ncc(-c4cccnc4)cc23)c1F	≤ 10
O=C(c1cc(O)ccc1F)c1c[nH]c2ncc(-c3cccs3)cc12	≤ 10
Cc1ccc(F)cc1C(=O)c1c[nH]c2ncc(-c3ccc(C(N)=O)cc3)cc12	≤ 10
CS(=O)(=O)c1cccc(-c2cnc3[nH]cc(C(=O)c4cc(O)ccc4F)c3c2)c1	≤ 10
CS(=O)(=O)Nc1ccc(Cl)c(C(=O)c2c[nH]c3ncc(-c4cccc(S(C)(=O)=O)c4)cc23)c1F	≤ 10
Cc1ccccc1C(=O)c1c[nH]c2ncc(-c3cccc(N)c3)cc12	≤ 10
COc1cccc(C(=O)c2c[nH]c3ncc(-c4cccc(N)c4)cc23)c1	≤ 10
CS(=O)(=O)Nc1ccc(F)c(C(=O)c2c[nH]c3ncc(-c4cccc(S(C)(=O)=O)c4)cc23)c1F	≤ 10

SMILES	IC50 [µM]
Cc1c(NS(C)(=O)=O)cccc1C(=O)c1c[nH]c2ncc(-c3ccccc3)cc12	≤ 10
O=C(c1cc(O)ccc1F)c1c[nH]c2ncc(Br)cc12	≤ 10
O=C(c1ccccc1F)c1c[nH]c2ncccc12	≤ 10
Fc1ccc(/C=C/c2ccnc3[nH]ccc23)cc1	≤ 10
Cc1ccc(S(=O)(=O)NCc2c[nH]c3ncccc23)cc1	≤ 10
CCc1cnc2[nH]cc(C(=O)c3cccc(OC)c3)c2c1	≤ 10
COc1cccc(C(=O)c2c[nH]c3ncc(-c4cccs4)cc23)c1	≤ 10
O=C(c1cc(O)ccc1F)c1c[nH]c2ncc(-c3ccsc3)cc12	≤ 10
O=C(c1cccc(O)c1F)c1c[nH]c2ncc(-c3cncnc3)cc12	≤ 10
O=C(c1cccc(Cl)c1Cl)c1c[nH]c2ncc(-c3cccnc3)cc12	≤ 10
CS(=O)(=O)Nc1ccc(F)c(C(=O)c2c[nH]c3ncc(-c4cccnc4)cc23)c1F	≤ 10
O=C(c1cccc(NCc2ccccc2)c1)c1c[nH]c2ncccc12	≤ 10
CCCS(=O)(=O)Nc1ccc(Cl)c(C(=O)c2c[nH]c3ncc(-c4cccnc4)cc23)c1F	≤ 10
O=C(c1cccc(O)c1F)c1c[nH]c2ncc(-c3cccs3)cc12	≤ 10
NC(=O)c1ccc(-c2cnc3[nH]cc(C(=O)c4cccc(O)c4)c3c2)cc1	≤ 10

Now from value to compound:

IC50 [µM]	SMILES
≤ 10	CS(=O)(=O)Nc1ccc(F)c(C(=O)c2c[nH]c3ncc(Br)cc23)c1
≤ 10	O=C(Nc1ccc(Cc2c[nH]c3ncccc23)cc1)Nc1cccc(C(F)(F)F)c1
≤ 10	CS(=O)(=O)Nc1cccc(-c2cnc3[nH]cc(C(=O)c4c(Cl)ccc(NS(C)(=O)=O)c4F)c3c2)c1
≤ 10	O=C(Nc1ccc(F)c(C(=O)c2c[nH]c3ncc(-c4cccnc4)cc23)c1F)OCc1ccccc1
≤ 10	Cc1c(O)cccc1C(=O)c1c[nH]c2ncc(-c3ccccc3)cc12
≤ 10	CS(=O)(=O)Nc1cccc(-c2cnc3[nH]cc(C(=O)c4cc(NS(C)(=O)=O)ccc4F)c3c2)c1
≤ 10	O=C(c1ccccc1F)c1c[nH]c2ncc(-c3ccsc3)cc12
≤ 10	O=C(c1cc(O)ccc1F)c1c[nH]c2ncc(-c3cccnc3)cc12
≤ 10	Cc1ccc(F)cc1C(=O)c1c[nH]c2ncc(-c3ccsc3)cc12
≤ 10	Cc1c(O)cccc1C(=O)c1c[nH]c2ncc(-c3cccs3)cc12
≤ 10	Oc1cc(O)cc(Cc2c[nH]c3ncc(-c4ccsc4)cc23)c1
≤ 10	CCCNC(=O)Nc1ccc(F)c(C(=O)c2c[nH]c3ncc(-c4cccnc4)cc23)c1F
≤ 10	NC(=O)c1ccc(-c2cnc3[nH]cc(C(=O)c4ccccc4F)c3c2)cc1
≤ 10	CS(=O)(=O)Nc1ccc(F)c(C(=O)c2c[nH]c3ncc(-c4ccccc4)cc23)c1
≤ 10	CCS(=O)(=O)Nc1ccc(F)c(C(=O)c2c[nH]c3ncc(-c4cccnc4)cc23)c1F
≤ 10	O=C(c1cccc(O)c1)c1c[nH]c2ncc(-c3cccs3)cc12
≤ 10	CCc1cnc2[nH]cc(C(=O)c3cccc(O)c3)c2c1
≤ 10	O=C(c1cccc(O)c1F)c1c[nH]c2ncc(-c3ccccc3)cc12
≤ 10	CC(=O)Nc1cccc(-c2cnc3[nH]cc(C(=O)c4cccc(O)c4F)c3c2)c1
≤ 10	Oc1ccc(F)c(Cc2c[nH]c3ncc(Br)cc23)c1F
≤ 10	CCCS(=O)(=O)Nc1ccc(F)c(C(=O)c2c[nH]c3ncc(Br)cc23)c1F
≤ 10	CS(=O)(=O)Nc1ccc(F)c(C(=O)c2c[nH]c3ncc(-c4cccnc4)cc23)c1
≤ 10	O=C(c1cccc(O)c1F)c1c[nH]c2ncc(-c3cccnc3)cc12

IC50 [µM]	SMILES
≤ 10	O=C(c1cc(F)ccc1F)c1c[nH]c2ncc(-c3ccsc3)cc12
≤ 10	O=C(Nc1ccc(Cc2c[nH]c3ncccc23)cc1)Nc1ccc(Cl)c(C(F)(F)F)c1
≤ 10	O=C(c1c(F)ccc(O)c1F)c1c[nH]c2ncc(-c3cccnc3)cc12
≤ 10	CS(=O)(=O)Nc1ccc(Cl)c(C(=O)c2c[nH]c3ncc(Br)cc23)c1F
≤ 10	COc1cccc(C(=O)c2c[nH]c3ncc(-c4cccc(C(N)=O)c4)cc23)c1
≤ 10	Cc1ccccc1C(=O)c1c[nH]c2ncc(-c3ccsc3)cc12
≤ 10	Clc1ccc(Nc2ccnc3[nH]ccc23)cc1Cl
≤ 10	NC(=O)c1cccc(-c2cnc3[nH]cc(C(=O)c4cc(O)ccc4F)c3c2)c1
≤ 10	CS(=O)(=O)Nc1ccc(F)c(C(=O)c2c[nH]c3ncc(-c4cccc(C(N)=O)c4)cc23)c1
≤ 10	Oc1cccc(Cc2c[nH]c3ncc(-c4ccsc4)cc23)c1
≤ 10	O=C(c1cccc(O)c1)c1c[nH]c2ncc(-c3ccsc3)cc12
≤ 10	Nc1cccc(-c2cnc3[nH]cc(C(=O)c4ccccc4F)c3c2)c1
≤ 10	O=S(=O)(NCc1c[nH]c2ncccc12)c1cc(Cl)c(Cl)s1
≤ 10	Cc1cccc(N(C)c2ccnc3[nH]ccc23)c1
≤ 10	CS(=O)(=O)c1cccc(-c2cnc3[nH]cc(C(=O)c4cccc(O)c4F)c3c2)c1
≤ 10	c1cnc2ccc(Nc3ccnc4[nH]ccc34)cc2c1
≤ 10	Nc1cccc(-c2cnc3[nH]cc(C(=O)c4ccc(Cl)cc4)c3c2)c1
≤ 10	O=C(c1cc(O)ccc1F)c1c[nH]c2ncccc12
≤ 10	COC(=O)Nc1ccc(F)c(Cc2c[nH]c3ncc(-c4cccnc4)cc23)c1F
≤ 10	Cc1ccc(F)cc1C(=O)c1c[nH]c2ncc(-c3cccc(NS(C)(=O)=O)c3)cc12
≤ 10	c1cc(Nc2ccc3ncsc3c2)c2cc[nH]c2n1
≤ 10	NC(=O)c1cccc(-c2cnc3[nH]cc(C(=O)c4cccc(O)c4F)c3c2)c1
≤ 10	O=C(c1cc(O)ccc1F)c1c[nH]c2ncc(-c3ccccc3)cc12
